Data on 2 molecules can be found in ChEMBL document CHEMBL1201862, “PubChem BioAssay data set” (2004).

Some test systems named below: SR; NCI-H460; SF-539; EKVX; K562; HOP-62; M14; SK-MEL-2; UACC-62; Malme-3M; CCRF-CEM; HT-29; DLD-1; RXF 393; SK-OV-3; SN12C; Hs-578T; MDA-MB-435; A549; HCT-116.
What all share (test): growth of human tumour cells (NCI), 48 h

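How tested: cells in 96-well plates exposed to compound for 48 hours at five concentrations. Abbreviation: GI50, concentration required for 50% inhibition of growth.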 Activity calls are given as the source filed them. Cut-off read from the data, not from the text of the source: active = GI50 up to about 1.1 µM and inactive = higher.

On to `CN(C)CCC(=O)N1C/C(=C\c2ccc(Cl)c(Cl)c2)C(=O)/C(=C/c2ccc(Cl)c(Cl)c2)C1`, for which the GI50 in the assay on SR was 74.6 nM (active); with NCI-H460 it was 479 nM (active); in the assay with SF-539, 274 nM (active); with EKVX, 565 nM (active); with K562, 38 nM (active); in the assay on HOP-62, 303 nM (active). The GI50 in the assay with M14 was 291 nM (active); in the assay on SK-MEL-2, 1630 nM (inactive); with UACC-62, 608 nM (active); in the assay with Malme-3M it was 640 nM (active); in the assay on CCRF-CEM, 26.9 nM (active); in the assay on HT-29, 188 nM (active). The GI50 with DLD-1 is 157 nM (active); in the assay on RXF 393 it was 269 nM (active); with SK-OV-3 it was 1860 nM (inactive); with SN12C, 207 nM (active); with Hs-578T, 257 nM (active); in the assay on MDA-MB-435, 347 nM (active). Further, the GI50 in the assay with A549 is 531 nM (active); with HCT-116 it was 119 nM (active).

Take `Cc1nc2c(nc1C)C(=O)c1ccccc1C2=O`: the GI50 in the assay with SR was 8430 nM (inactive); with NCI-H460 it was 923 nM (active); in the assay with SF-539, 4600 nM (inactive); in the assay on EKVX, 15400 nM (inactive); with K562, 7670 nM (inactive); in the assay on HOP-62, 5200 nM (inactive). Besides, the GI50 with M14 was 871 nM (active); in the assay with SK-MEL-2, 1240 nM (inactive); in the assay with UACC-62 it was 859 nM (active); in the assay with Malme-3M it was 237 nM (active); with CCRF-CEM, 8550 nM (inactive); with HT-29 it was 4460 nM (inactive). Also, the GI50 with DLD-1 is 14900 nM (inactive); in the assay with RXF 393, 15400 nM (inactive); in the assay on SK-OV-3, 34500 nM (inactive); in the assay with SN12C it was 2480 nM (inactive); in the assay with Hs-578T it was 2140 nM (inactive); with MDA-MB-435 it was 204 nM (active). Besides, the GI50 in the assay on A549 is 1250 nM (inactive); with HCT-116, 4650 nM (inactive).
